Key:
HCC1806 = assay: Broad cell line profiling, HCC1806; format: cell-based; settings: Homo sapiens; HCC1806, Acantholytic Squamous Carcinoma; read-out: PA IC50
From the text: (§1) • A panel of human and mouse cancer cell types used to assess the breadth of PA activity, including multiple therapy resistant metastatic mesenchymal tumor cell lines and primary glioblastoma patient-derived metastatic stem/tumor initiating cell populations.

B16-F10 = assay: Broad cell line profiling, B16-F10; format: cell-based; settings: B16-F10, Mouse Melanoma; read-out: PA IC50
From the text: as §1

NMD3 mRNA = NMD3 mRNA level in cells; format: cell-based, human
Description: (§2) FIG. 6. Portimine A inhibits S phase entry in Jurkat cells. Portimine A downregulates NMD3 at protein level but upregulates in mRNA level in cells, as well as some essential apoptosis proteins. […] Protein degradation of p53, Mcl1, Bid, Bim, Noxa can be rescued by MG132 or Epoxomicin. (B) NMD3 mRNA increased after PA treatment, but not ePA control compound. Jurkat cells were treated with indicated compounds for 24 hr; Cells were then fixed and perform Propidium Iodide staining.
(§3) • 1) Portimine A and its functional analogs show stereo-selective acute toxicity in cancer cells (FIG. 1). […] (B) Structure of portimine related analogs: phenyl-portimine A (Ph-PA, 36) and epi-portimine A (ePA, 38). Structure of fully functionalized portimine A-based epimeric probe pair: portimine A-diazirine-alkyne (PA-DA, 35-2) and epi-portimine A-diazirine-alkyne (ePA-DA, 35-1). (C) Cell viability analysis of portimine A and analogs. Jurkat cells were treated with increasing concentrations of portimine A and analogs for 24 hours. All presented data as mean of biological replicated experiments (n=3). […] Jurkat cells were treated with portimine A or analogs for 12 hours at 10 nM. […] Cell lysates were fractionated by sucrose gradient (5-50%) and each fraction were analyzed by western blot. eIF6 levels increase in 60S subunit fraction and decrease in ribosome-free fractions after PA treatment. […]

Bcl-xl = Bcl-xl protein level in cells; format: cell-based, human
Description: as §2, §3

C=CC1=C[C@@H]2[C@@H]3O[C@]4(CC[C@H](O4)C(C)C[C@@H](O)C3=O)CC(O)C3=NCC[C@@]32CC1 (stereo partly shown) [PA, portimine A]
IC50 (HCC1806): 0.72 nM | IC50 (B16-F10): 0.75 nM | NMD3 mRNA (NMD3 mRNA): increased | Bcl-xl protein level after treatment (Bcl-xl): downregulated
